Measurements reported in patent publication US20160318866A1, “SUBSTITUTED BIPIPERIDINYL DERIVATIVES” (Bayer Pharma Aktiengesellschaft, priority 2013, published 2016).

Assays:
ZDF rat = assay: Measurement of blood flow and blood pressure in rats (ZDF rats); assay type: in vivo; conditions: for Change in the femoral flow in %: ZDF rat, steady state, 32 min after start, vs initial flow, mean
Protocol: (§1) Wistar rats (Hsd Cpb:Wu) of a weight of 250-350 g or ZDF rats (ZDF/Crl-Lepr fa/fa) of a weight of 330-520 g were anaesthetized using 2.5% isoflurane in an oxygen/laughing gas mixture (40:60). To determine the blood flow in the carotid artery and the femoral artery, the anaesthetized rat was brought into a supine position, and the left carotid artery and the right femoral artery are then carefully exposed. Blood flow was measured by placing flow probes (Transonic Flowprobe) at the vessels. By introducing a PE50 artery catheter into the left femoral artery, blood pressure and heart rate were determined (Transducer Ref. 5203660: from Braun CH). The substances were administered as a bolus injection or a continuous infusion via a venous catheter in the left femoral vein.
(§2) Following the preparation of the animals, there was a 5 min baseline interval. Infusion of the AR alphα2C receptor antagonist was then started. In the steady state (32 min after the start of the experiment), the femoral flow was determined in relation (% difference) to the initial flow.

Wistar rat = assay: Measurement of blood flow and blood pressure in rats (Wistar rats); assay type: in vivo; conditions: steady state, 32 min after start, vs initial flow, mean
Protocol: as §1, §2

adult female Wistar rats = assay: Radiotelemetric measurement of blood pressure and heart rate of conscious rats; assay type: in vivo, rat; conditions: 5 and 15 mg/kg, oral, telemetry over 24 hours
Excerpt: A commercially available telemetry system from Data Sciences International DSI, USA, was employed for the measurements on conscious rats described below. The system consists of 3 main components: (1) implantable transmitters (Physiotel® telemetry transmitter), (2) receivers (Physiotel® receiver), which are linked via a multiplexer (DSI Data Exchange Matrix) to a (3) data acquisition computer. The telemetry system makes it possible to continuously record blood pressure, heart rate and body motion of conscious animals in their usual habitat.
The studies were conducted on adult female Wistar rats with a body weight of >200 g. After transmitter implantation, the experimental animals were housed singly in type III Makrolon® cages. They had free access to standard feed and water. The day/night rhythm in the test laboratory was set by changing the illumination of the room.
The telemetry transmitters used (PA-C40, DSI) were surgically implanted under aseptic conditions in the experimental animals at least 14 days before the first experimental use.
For the implantation, the fasted animals were anaesthetized with isoflurane (IsoFlo®, Abbott, initiation 5%, maintenance 2%) and shaved and disinfected over a large area of their abdomens. […]
Each of the instrumented rats living in the system was assigned a separate receiving antenna (RPC-1 Receiver, DSI). […] The signals emitted were detected online by a data acquisition system (Dataquest™ A.R.T. for Windows, DSI) and processed accordingly.
In the standard procedure, the following were measured for 10-second periods in each case: (1) systolic blood pressure (SBP), (2) diastolic blood pressure (DBP), (3) mean arterial pressure (MAP), (4) heart rate (HR) and (5) activity (ACT). These parameters were measured over 24 hours after administration.
The acquisition of measurements was repeated under computer control at 5-minute intervals. The source data obtained as absolute values were corrected in the diagram with the currently measured barometric pressure (Ambient Pressure Reference Monitor, APR-1, DSI). […]

[1] = anaesthetized rats, same experiment as femoral flow, strain not specified

`CC1CCCN(C2CCN(C(=O)c3ccc(C(C)(C)O)cc3)CC2)C1` (single isomer, unassigned) [Example 8, [4-(1-Hydroxy-1-methylethyl)phenyl)](3-methyl-1,4′-bipiperidin-1′-yl)methanone, (−)-enantiomer] was tested, and the “Change in the femoral flow in %” value (ZDF rat; 3 μg/kg/min infusion) was 12.0 (n = 4) %, the “Change in the femoral flow in %” value (ZDF rat; 10 μg/kg/min infusion) was 127.9% and the “Change in the femoral flow in %” value (ZDF rat; 30 μg/kg/min infusion) was 144.4%. For the same compound, the blood pressure (ZDF rat; [1]) was “no changes”, the heart rate (ZDF rat; [1]) was “no changes” and the “Change in the femoral flow in %” value (Wistar rat; 10 μg/kg/min) was 14.2 (n = 3) %. For the same compound, the “Change in the femoral flow in %” value (Wistar rat; 30 μg/kg/min infusion) was 3.1 (n = 5) %, the “Change in the femoral flow in %” value (Wistar rat; 300 μg/kg/min infusion) was 15.3 (n = 5) % and the blood pressure (adult female Wistar rats) was “without any effect on blood pressure”. The heart rate (adult female Wistar rats) was “slight transient increase of the heart rate”.
